Test results from US9695155B2, “Herbicidal substituted pyrimidinyloxy benzene compounds” (E. I. DU PONT DE NEMOURS AND COMPANY, priority 2013, dated 2017).

What was measured:
[1] = system: ragweed; test: Test C postemergence; format: in vivo, Ambrosia elatior; settings: for Ragweed plant response rating: 31 g ai/ha; for Ragweed plant response rating / Plant response rating, Ragweed: scale 0 to 100 (0 no effect, 100 complete control)
Procedure, shortened: (§1)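 Visual ratings on a 0–100 scale (100 = complete control) were made versus untreated controls after 13–15 greenhouse days. Chemicals in a surfactant-containing non-phytotoxic solvent were applied either preemergence to seeds in loam–sand soil or postemergence to 1- to 4-leaf plants 2–18 cm tall.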

[2] = system: wild oat; test: Test C postemergence; format: in vivo, Avena fatua; settings: for Oat, Wild plant response rating: 31 g ai/ha; for Oat, Wild plant response rating / Plant response rating, Oat, Wild: scale 0 to 100 (0 no effect, 100 complete control)
Procedure, shortened: as §1

[3] = system: rice; test: Test B flooded paddy test; format: in vivo, Oryza sativa; settings: Flood, 250 g ai/ha; 0 to 100 scale where 0 is no effect and 100 is complete control
Procedure, shortened: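 Compound added straight to paddy water, with pots kept flooded 3 cm above soil, on plants grown to the 2-leaf stage. Visual scoring 0-100 (100 = complete control) against untreated controls after 13 to 15 greenhouse days.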

[4] = system: pigweed; test: Test A preemergence; format: in vivo, Amaranthus retroflexus
Procedure, shortened: (§2)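 Greenhouse pot test, loam/sand soil. Formulation: non-phytotoxic solvent mix plus surfactant. Pre: directed spray onto soil after sowing. Post: plants at 1–2 leaf, 2–10 cm. Rated visually vs untreated controls at ~10 d, 0 (no effect) to 100 (complete control).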

[5] = system: oilseed rape; test: Test C postemergence; format: in vivo, Brassica napus; settings: for Oilseed Rape plant response rating: 31 g ai/ha; for Oilseed Rape plant response rating / Plant response rating, Oilseed Rape: scale 0 to 100 (0 no effect, 100 complete control)
Source text: Seeds of plant species selected from blackgrass (Alopecurus myosuroides), Italian ryegrass (Lolium multiflorum), wheat, winter (winter wheat, Triticum aestivum), galium (catchweed bedstraw, Galium aparine), corn (Zea mays), large (Lg) crabgrass (Digitaria sanguinalis), giant foxtail (Setaria faberii), johnsongrass (Sorghum halepense), lambsquarters (Chenopodium album), morningglory (Ipomoea coccinea), yellow nutsedge (Cyperus esculentus), pigweed (Amaranthus retroflexus), ragweed (common ragweed, Ambrosia elatior), soybean (Glycine max), barnyardgrass (Echinochloa crus-galli), oilseed rape (Brassica napus), waterhemp (common waterhemp, Amaranthus rudis), kochia (Kochia scoparia), wild oat (Avena fatua), surinam grass (Brachiaria decumbens), foxtail, green (green foxtail, Setaria viridis), goosegrass (Eleusine indica), bromegrass, downy (downy bromegrass, Bromus tectorum), nightshade (eastern black nightshade, Solanum ptycanthum), cocklebur (common cocklebur, Xanthium strumarium), cupgrass, woolly (woolly cupgrass, Eriochloa villosa), bermudagrass (Cynodon dactylon), sunflower, (common oilseed sunflower, Helianthus annuus), Russian thistle (Salsola kali), and velvetleaf (Abutilon theophrasti) were planted into a blend of loam soil and sand and treated preemergence with test chemicals formulated in a non-phytotoxic solvent mixture which included a surfactant.
At the same time, plants selected from these crop and weed species and also barley, winter (winter barley, Hordeum vulgare), windgrass (Apera spica-venti), chickweed (common chickweed, Stellaria media), deadnettle (henbit deadnettle, Lamium amplexicaule), and canarygrass (littleseed canarygrass, Phalaris minor) were planted in pots containing Redi-Earth® planting medium (Scotts Company, 14111 Scottslawn Road, Marysville, Ohio 43041) comprising spaghnum peat moss, vermiculite, wetting agent and starter nutrients and treated with postemergence applications of test chemicals formulated in the same manner. Plants ranged in height from 2 to 18 cm (1- to 4-leaf stage) for postemergence treatments. Treated plants and controls were maintained in a greenhouse for 13 to 15 days, after which time all species were compared to controls and visually evaluated. Plant response ratings, summarized in Table C, are based on a scale of 0 to 100 where 0 is no effect and 100 is complete control. A dash (-) response means no test result.

[6] = system: barnyardgrass; test: Test A preemergence; format: in vivo, Echinochloa crus-galli
Procedure, shortened: as §2

[7] = system: lambsquarters; test: Test C postemergence; format: in vivo, Chenopodium album; settings: for Lambsquarters plant response rating: 31 g ai/ha; for Lambsquarters plant response rating / Plant response rating, Lambsquarters: scale 0 to 100 (0 no effect, 100 complete control)
Procedure, shortened: as §1

[8] = system: Italian ryegrass; test: Test C postemergence; format: in vivo, Lolium multiflorum; settings: for Ryegrass, Italian plant response rating: 31 g ai/ha; for Ryegrass, Italian plant response rating / Plant response rating, Ryegrass, Italian: scale 0 to 100 (0 no effect, 100 complete control)
Procedure, shortened: as §1

[9] = system: morningglory; test: Test C postemergence; format: in vivo, Ipomoea coccinea; settings: for Morningglory plant response rating: 31 g ai/ha; for Morningglory plant response rating / Plant response rating, Morningglory: scale 0 to 100 (0 no effect, 100 complete control)
Procedure, shortened: as §1

[10] = system: large (Lg) crabgrass; test: Test C postemergence; format: in vivo, Digitaria sanguinalis; settings: for Crabgrass, Large plant response rating: 31 g ai/ha; for Crabgrass, Large plant response rating / Plant response rating, Crabgrass, Large: scale 0 to 100 (0 no effect, 100 complete control)
Procedure, shortened: as §1

[11] = 16 g ai/ha, postemergence, 0 is no effect, 100 is complete control
[12] = postemergence, visual rating, 13 to 15 days
[13] = 125 g ai/ha, postemergence, visual rating
[14] = 1000 g ai/ha, 0 to 100 scale, 0 no effect, 100 complete control, approx. 10 days
[15] = Postemergence, 62 g ai/ha, 13 to 15 days
[16] = 500 g ai/ha, 0 to 100 scale where 0 is no effect and 100 is complete control

Fc1cccc(Oc2ncc(Cl)cn2)c1-n1cc(C2CC2)nn1 [Compound 155]
Plant response rating (0 to 100), Ragweed [1, 11]: 50 | Ragweed plant response rating [1, 12]: 55 | Plant response rating, Ragweed [1, 13]: 85 | Plant response rating, Ragweed ([1]; Postemergence, 62 g ai/ha): 70 | Plant response rating (0 to 100), Oat, Wild [2, 11]: 0 | Oat, Wild plant response rating [2, 12]: 0 | Plant response rating, Oat, Wild [2, 13]: 25 | Plant response rating, Oat, Wild ([2]; Postemergence, 62 g ai/ha): 5 | Plant response rating, Rice [3]: 50 | Pigweed plant response rating [4, 14]: 100 | Plant response rating (0 to 100), Oilseed Rape [5, 11]: 60 | Oilseed Rape plant response rating [5, 12]: 50 | Plant response rating, Oilseed Rape [5, 13]: 80 | Plant response rating, Oilseed Rape ([5]; Postemergence, 62 g ai/ha): 50 | Barnyardgrass plant response rating [6, 14]: 100 | Plant response rating (0 to 100), Lambsquarters [7, 11]: 65 | Lambsquarters plant response rating [7, 12]: 90 | Plant response rating, Lambsquarters [7, 13]: 98 | Plant response rating, Lambsquarters ([7]; Postemergence, 62 g ai/ha): 98 | Plant response rating (0 to 100), Ryegrass, Italian [8, 11]: 0 | Ryegrass, Italian plant response rating [8, 12]: 0 | Plant response rating, Ryegrass, Italian [8, 13]: 10 | Plant response rating, Ryegrass, Italian ([8]; Postemergence, 62 g ai/ha): 10 | Plant response rating (0 to 100), Morningglory [9, 11]: 70 | Morningglory plant response rating [9, 12]: 80 | Plant response rating, Morningglory [9, 13]: 85 | Plant response rating, Morningglory ([9]; Postemergence, 62 g ai/ha): 80 | Plant response rating (0 to 100), Crabgrass, Large [10, 11]: 5 | Crabgrass, Large plant response rating [10, 12]: 5 | Plant response rating, Crabgrass, Large [10, 13]: 15 | Plant response rating, Crabgrass, Large ([10]; Postemergence, 62 g ai/ha): 5

N#Cc1cccc(Oc2ncc(Cl)cn2)c1-n1cc(-n2ccc(C(F)(F)F)n2)cn1 [Compound 284]
Ragweed plant response rating [1, 12]: 55 | Plant response rating, Ragweed [1, 13]: 50 | Plant response rating (0 to 100), Ragweed ([1]; 250 g ai/ha, postemergence): 80 | Plant response rating, Ragweed [1, 15]: 55 | Oat, Wild plant response rating [2, 12]: 5 | Plant response rating, Oat, Wild [2, 13]: 5 | Plant response rating (0 to 100), Oat, Wild ([2]; 250 g ai/ha, postemergence): 5 | Plant response rating, Oat, Wild [2, 15]: 5 | Plant response rating, Rice [3]: 0 | Pigweed plant response rating (0 to 100 scale) ([4]; 125 g ai/ha): 100 | Pigweed plant response rating [4, 16]: 100 | Oilseed Rape plant response rating [5, 12]: 70 | Plant response rating, Oilseed Rape [5, 13]: 80 | Plant response rating (0 to 100), Oilseed Rape ([5]; 250 g ai/ha, postemergence): 80 | Plant response rating, Oilseed Rape [5, 15]: 70 | Barnyardgrass plant response rating (0 to 100 scale, 0 is no effect, 100 is complete control) ([6]; 125 g ai/ha): 60 | Barnyardgrass plant response rating [6, 16]: 90 | Lambsquarters plant response rating [7, 12]: 70 | Plant response rating, Lambsquarters [7, 13]: 98 | Plant response rating (0 to 100), Lambsquarters ([7]; 250 g ai/ha, postemergence): 98 | Plant response rating, Lambsquarters [7, 15]: 85 | Ryegrass, Italian plant response rating [8, 12]: 5 | Plant response rating, Ryegrass, Italian [8, 13]: 5 | Plant response rating (0 to 100), Ryegrass, Italian ([8]; 250 g ai/ha, postemergence): 5 | Plant response rating, Ryegrass, Italian [8, 15]: 5 | Morningglory plant response rating [9, 12]: 70 | Plant response rating, Morningglory [9, 13]: 85 | Plant response rating (0 to 100), Morningglory ([9]; 250 g ai/ha, postemergence): 100 | Plant response rating, Morningglory [9, 15]: 100 | Crabgrass, Large plant response rating [10, 12]: 5 | Plant response rating, Crabgrass, Large [10, 13]: 10 | Plant response rating (0 to 100), Crabgrass, Large ([10]; 250 g ai/ha, postemergence): 10 | Plant response rating, Crabgrass, Large [10, 15]: 5
